Among the data in publication PMC2770256 (Journal of molecular biology, 2009) are Value values, retold here.

The structures appear in SMILES notation.

The target in the test is Ypt1p (His6-Ypt1p 1-180) (Saccharomyces cerevisiae, UniProt P01123). Description: stopped-flow fluorescence. The test is classed as binding. Conditions: pH 8.0, 25 °C, 5 mM MgCl2; labelled compound; nucleotide-free Ypt1p; association rate constant.
Sequence of Ypt1p (His6-Ypt1p 1-180) (P01123 1-180): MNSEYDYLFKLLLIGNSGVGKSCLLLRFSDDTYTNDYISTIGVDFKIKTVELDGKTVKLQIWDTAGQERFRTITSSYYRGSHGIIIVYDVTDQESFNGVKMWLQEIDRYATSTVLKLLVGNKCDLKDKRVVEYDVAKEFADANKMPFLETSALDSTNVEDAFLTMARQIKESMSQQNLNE

For the compound `CNc1ccccc1C(=O)O[C@H]1C[C@H](n2cnc3c(=O)[nH]c(N)nc32)O[C@@H]1COP(=O)(O)OP(=O)(O)O` [mant-dGDP], the Value is listed as 0.096 (±0.004) μM^-1 s^-1.
